Data taken from article PMC7352571, “New Anti-Cancer Strategy to Suppress Colorectal Cancer Growth Through Inhibition of ATG4B and Lysosome Function” (Cancers, 2020).

Legend:
[1] = test system: lysosome acidity in HeLa cells; assay: LysoTracker Red (LTR) assay, HeLa; format: cell-based; conditions: 6 h, 163N 5 or 10 µM, Rap 1 µM, E64D 25 µM plus pepstatin A 50 µM
Method: Figure 5 163N causes lysosome dysfunction. […] (C) HeLa cells were treated with or without 163N (10 µM) for 6 h, followed by immunostaining using cathepsin B and LAMP1 antibody. The colocalization of cathepsin B and LAMP1 was measured.
LTR assay: cells were incubated with LTR (25 nM) in HBSS medium at 37° for 30 min, and then fluorescence microscopy was used for detecting fluorescence intensity.

U87 cells = assay: CCK-8 cell viability assay, U87; format: cell-based; conditions: Homo sapiens, U-87 MG; CCK-8 assay, 48 h
Method: (§1) Cells were seeded and incubated overnight in 96-well plates at a density of 5 × 10^3 cells/well. […] A total of 10 µL CCK-8 were added to each well for additional 1 h and cell viability was measured by CCK-8 assay. Absorbance was measured at 450 nm. The IC50 values were calculated by GraphPad Prism 7 (GraphPad Software Inc., San Diego, CA, USA).

HL60 cells = assay: CCK-8 cell viability assay, HL60; format: cell-based; conditions: Homo sapiens, HL-60; CCK-8 assay
Method: as §1

caspase-3 = biological target: T1, caspase-3 (Homo sapiens, UniProt P42574); assay: caspase-3 activity assay (Ac-DEVE-AFC cleavage in lysate of staurosporine-treated HeLa cells); format: biochemical; conditions: even at a concentration of 50 µM
T1 construct: endogenous in cells; host or cells: HeLa (staurosporine-treated, whole cell lysate)
Method: . (B) Predicted binding model of compound XOS00163, XOS00201, and XOS00207 bind to ATG4B (PDB ID: 2CY7) pocket. […] . […] . HeLa cells were treated with 1 µM of staurosporine (SP) for 12 h to induce cell apoptosis. Then, 2 µg of the whole cell lysate were mixed with indicated compounds at 37° for 30 min, Ac-DEVE-AFC (25 µM) were then added to a volume of 50 µL, and the emission of 505 nm for AFC was recorded. […] |

[2] = test system: proteolytic activity of lysosomes in HeLa cells; assay: DQ-BSA Red assay; format: cell-based; conditions: 6 h, 163N 5 or 10 µM, Baf 0.5 µM, E64D 25 µM plus pepstatin A 50 µM
Method: Figure 5 163N causes lysosome dysfunction. […] . (C) HeLa cells were treated with or without 163N (10 µM) for 6 h, followed by immunostaining using cathepsin B and LAMP1 antibody. The colocalization of cathepsin B and LAMP1 was measured.
DQ-BSA Red assay: cells were incubated with 10 µg/mL DQ-BSA Red in EBSS medium at 37° for 1.5 h, and then new medium with or without the indicated compounds were added for another 4 or 6 h, and then fluorescence microscopy was used for detecting the intensity of red fluorescent.
Supplementary Materials: New Anti-Cancer Strategy
to Suppress Colorectal Cancer Growth Through
Inhibition of ATG4B and Lysosome Function
Figure S1. Compounds with a 6-methylpyrimidine-2,4-diamine structure could cause lysosome
inhibition. (A) The structure of the representative lysosome inhibitors. (B) GFP-LC3B HeLa cells were
treated with Baf (0.5 µM) or 5 µM of different lysosome inhibitors for 2 h, then LysoTracker Red (LTR,
25 ng/mL) was used and the relative LTR fluorescent intensity was measured. (C) HeLa cells were
firstly treated with 10 µg/mL DQ-BSA for 1.5 h, and then treated with Rap (1 µM), Baf (0.5 µM), E64D
(25 µM) plus pepstatin A (50 µM), or 5 µM of different lysosome inhibitors for 4 h.
Cancers 2020, 12, x; www.mdpi.com/journal/ cancers […]

ATG16L1 KO Hela cells = assay: CCK-8 assay, ATG16L1 KO Hela cells; format: cell-based; conditions: Homo sapiens
Method: as §1
Figure S4. The identification of ATG4B knockout HCT116 cells. (A) The genomic DNA of HCT116 cells in the control group transfected with GFP-sgRNA and the experimental group transfected with ATG4B-sgRNA was used as a template for PCR, and the PCR products were used for sequencing. (B) Protein levels of ATG 4B and LC3B in the control and ATG4BKO cells.
Figure S5. 163N induces cell death through targeting autophagy. (A) Hela cells were treated with […]
performed to assess cell proliferation. ( B) Hela cells or ATG16L1 KO Hela cells were treated with […]

HCT116 cells = assay: CCK-8 cell viability assay, HCT116; format: cell-based, Human
Method: as §1

MGC803 cells = assay: CCK-8 cell viability assay, MGC803; format: cell-based; conditions: Homo sapiens, MGC-803; CCK-8 assay, 48 h
Method: as §1

A549 cells = assay: CCK-8 cell viability assay, A549; format: cell-based; conditions: Homo sapiens, CCK-8 assay, 48 h
Method: as §1

SQSTM1 in HeLa cells = assay: immunostaining of SQSTM1 dots; conditions: 10 µM, 6 h
SGC7901 cells = assay: CCK-8 cell viability assay, SGC7901; format: cell-based; conditions: Homo sapiens, SGC-7901; CCK-8 assay, 48 h
Method: as §1

KYSE150 cells = assay: CCK-8 cell viability assay, KYSE150; format: cell-based; conditions: Homo sapiens, KYSE-150; CCK-8 assay, 48 h
Method: as §1

ATG4A = ATG4A (Homo sapiens, UniProt Q8WYN0); assay: FRET-based assay for ATG4A activity
Sequence of ATG4A (Q8WYN0 whole entry, species assumed): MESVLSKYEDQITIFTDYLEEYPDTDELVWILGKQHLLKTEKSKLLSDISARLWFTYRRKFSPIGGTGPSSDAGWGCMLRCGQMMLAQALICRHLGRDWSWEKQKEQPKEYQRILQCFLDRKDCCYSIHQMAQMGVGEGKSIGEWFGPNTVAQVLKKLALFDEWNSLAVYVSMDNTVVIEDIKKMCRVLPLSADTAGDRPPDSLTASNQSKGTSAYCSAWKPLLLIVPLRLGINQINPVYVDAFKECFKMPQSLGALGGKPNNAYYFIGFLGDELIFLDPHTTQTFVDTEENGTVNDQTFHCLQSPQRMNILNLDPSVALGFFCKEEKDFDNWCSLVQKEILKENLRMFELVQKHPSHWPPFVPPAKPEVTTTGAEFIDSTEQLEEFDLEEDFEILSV
Method: A FRET-based assay for detecting ATG4B activity was carried out as described [45].

T1 sequence (P42574 29-175 limits assumed): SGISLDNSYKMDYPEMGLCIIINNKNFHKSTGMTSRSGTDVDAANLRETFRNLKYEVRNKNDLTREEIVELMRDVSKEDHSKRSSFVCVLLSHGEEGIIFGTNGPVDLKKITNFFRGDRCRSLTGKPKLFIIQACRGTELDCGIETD
T1 sequence (P42574 176-277 limits assumed): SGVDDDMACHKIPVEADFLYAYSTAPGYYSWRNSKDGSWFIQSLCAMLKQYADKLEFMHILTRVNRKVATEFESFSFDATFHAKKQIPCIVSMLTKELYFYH

## COc1ccc(Nc2cc(C)nc(Nc3ccc(-c4cc5ccccc5o4)cc3)n2)cc1 [Compound 163N]
[1]
  LTR red fluorescence / acidic vesicles: significant reduction in acidic vesicles
U87 cells
  IC50: 10.6 µM
HL60 cells
  IC50: 12.6 µM
caspase-3
  inhibition effect on caspase-3 activity: no inhibition effect
[2]
  dequenching of DQ-BSA (proteolytic activity of lysosome): nearly no dequenching of DQ-BSA
ATG16L1 KO Hela cells
  IC50: 12.4 µM
HCT116 cells; HCT116 cells
  cytotoxicity relative to XOS00163, XOS00201 and XOS00207, HCT116: about five times higher cytotoxicity
HCT116 cells; Homo sapiens, HCT-116, CCK-8 assay, 48 h
  IC50: 5.76 µM
MGC803 cells
  IC50: 9.33 µM
A549 cells
  IC50: 7.68 µM
SQSTM1 in HeLa cells
  degradation of autophagic substrate SQSTM1: significantly attenuated the degradation of the autophagic substrate SQSTM1
SGC7901 cells
  IC50: 21.2 µM
KYSE150 cells
  IC50: 13 µM
ATG4A
  IC50: 53.7 µM
